From US10508120B2, “TYK2 inhibitors and uses thereof” (Nimbus Lakshmi, Inc., priority 2017, dated 2019) come the findings set out here.

Like-named read-outs stand apart in the source and are kept apart here.

Test [1] concerns the target human TYK2 (JH2domain-pseudokinase) (Homo sapiens (Human), UniProt P29597). Nature of the test: TYK2 JH2 Domain Binding Assay (KINOMEscan). The method in brief:
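The construct was human TYK2 G556–D888 fused to the NFkB DNA-binding domain and expressed in HEK293 cells; unpurified extract was incubated with compound and liganded beads for 1 hour at room temperature.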

A further test deals with Tyk2 kinase domain (DH1) (Homo sapiens (Human), UniProt P29597). The experiment in a line: Tyk2 Radioactive Kinase Assay. The test is classed as biochemical. Particulars: read-out: Tyk2 JH1% Inhibition @ 10 μM. The method, boiled down: (§1)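 Read-out is percent inhibition from a radioactive kinase reaction, measured with compound at 10 μM.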
Tyk2 kinase domain (DH1), sequence (P29597 897-1176): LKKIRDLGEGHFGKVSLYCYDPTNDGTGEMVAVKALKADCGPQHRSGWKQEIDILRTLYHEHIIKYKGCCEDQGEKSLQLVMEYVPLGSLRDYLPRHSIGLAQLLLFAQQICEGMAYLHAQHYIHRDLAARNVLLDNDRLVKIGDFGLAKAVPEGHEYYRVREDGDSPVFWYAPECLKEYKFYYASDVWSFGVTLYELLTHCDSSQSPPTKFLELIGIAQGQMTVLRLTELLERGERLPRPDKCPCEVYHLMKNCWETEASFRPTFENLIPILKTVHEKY
In another test the target is JAK2 kinase domain (JH1) (Homo sapiens (Human), UniProt O60674). The experiment in a line: JAK2 Radioactive Kinase Assay. The test is classed as biochemical. Particulars: read-out: JAK2 JH1% Inhibition @ 10 μM. The method in brief:
as §1

Test [2] has as its target Tyk2/JAK2 (heterodimeric complex) (Homo sapiens (Human), UniProt P29597). The experiment in a line: IL-12 Induced pSTAT4 in Human PBMC. The test is classed as cell-based. Conditions: 1.7 ng/mL IL-12. From the text:
The IL-12 Induced pSTAT4 assay evaluates the inhibition of IL-12 induced STAT4 phophorylation mediated by Tyk2/JAK2 (heterodimeric complex).

Test [3] has as its target JAK2/JAK2 homdimeric complex (Homo sapiens (Human), UniProt O60674). Nature of the test: GM-CSF Induced pSTAT5 in Human PBMC. It is filed as cell-based. Particulars: GM-CSF 5 ng/mL for 20 minutes, pSTAT5 by MSD, read-out: PBMC_GMCSF_pSTAT5 IC50.

JAK2 kinase domain (JH1), sequence (O60674 849-1124): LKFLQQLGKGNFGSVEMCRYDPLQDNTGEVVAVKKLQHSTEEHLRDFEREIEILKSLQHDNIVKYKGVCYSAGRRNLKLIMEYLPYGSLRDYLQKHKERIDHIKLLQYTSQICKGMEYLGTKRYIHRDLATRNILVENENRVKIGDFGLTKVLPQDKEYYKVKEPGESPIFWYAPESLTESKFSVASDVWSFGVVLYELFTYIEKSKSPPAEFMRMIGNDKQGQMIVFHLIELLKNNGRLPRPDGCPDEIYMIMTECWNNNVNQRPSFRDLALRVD
JAK2/JAK2 homdimeric complex, sequence (O60674 whole entry): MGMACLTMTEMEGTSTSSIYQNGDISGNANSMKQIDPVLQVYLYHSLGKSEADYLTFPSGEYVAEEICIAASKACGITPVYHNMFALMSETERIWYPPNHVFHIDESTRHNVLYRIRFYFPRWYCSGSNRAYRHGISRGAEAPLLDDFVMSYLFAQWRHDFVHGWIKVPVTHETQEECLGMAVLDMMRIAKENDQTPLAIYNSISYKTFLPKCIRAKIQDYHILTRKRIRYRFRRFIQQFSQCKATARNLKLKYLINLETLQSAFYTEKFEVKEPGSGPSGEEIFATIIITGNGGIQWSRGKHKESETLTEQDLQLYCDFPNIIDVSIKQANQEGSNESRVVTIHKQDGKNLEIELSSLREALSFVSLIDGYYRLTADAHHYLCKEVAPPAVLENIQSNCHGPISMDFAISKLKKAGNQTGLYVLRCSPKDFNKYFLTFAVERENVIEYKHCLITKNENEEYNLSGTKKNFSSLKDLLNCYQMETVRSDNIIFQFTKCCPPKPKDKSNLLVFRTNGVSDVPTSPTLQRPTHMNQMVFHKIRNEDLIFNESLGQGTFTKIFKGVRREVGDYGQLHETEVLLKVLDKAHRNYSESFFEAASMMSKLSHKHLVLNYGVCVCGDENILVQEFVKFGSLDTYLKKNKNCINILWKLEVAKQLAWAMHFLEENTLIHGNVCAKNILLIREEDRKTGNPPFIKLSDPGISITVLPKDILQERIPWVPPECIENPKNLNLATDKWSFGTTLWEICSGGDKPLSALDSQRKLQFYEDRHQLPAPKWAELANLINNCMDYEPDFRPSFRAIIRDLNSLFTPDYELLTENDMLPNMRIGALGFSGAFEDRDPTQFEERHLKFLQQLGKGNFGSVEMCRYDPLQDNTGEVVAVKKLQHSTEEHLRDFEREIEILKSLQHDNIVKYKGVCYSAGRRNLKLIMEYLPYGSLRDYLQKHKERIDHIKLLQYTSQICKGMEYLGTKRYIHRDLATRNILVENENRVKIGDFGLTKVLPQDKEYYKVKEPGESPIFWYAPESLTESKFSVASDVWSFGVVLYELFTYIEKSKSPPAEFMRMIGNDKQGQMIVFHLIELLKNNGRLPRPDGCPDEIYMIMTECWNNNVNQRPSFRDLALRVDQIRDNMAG
JAK2/JAK2 homdimeric complex, sequence (P32927 17-897 partner): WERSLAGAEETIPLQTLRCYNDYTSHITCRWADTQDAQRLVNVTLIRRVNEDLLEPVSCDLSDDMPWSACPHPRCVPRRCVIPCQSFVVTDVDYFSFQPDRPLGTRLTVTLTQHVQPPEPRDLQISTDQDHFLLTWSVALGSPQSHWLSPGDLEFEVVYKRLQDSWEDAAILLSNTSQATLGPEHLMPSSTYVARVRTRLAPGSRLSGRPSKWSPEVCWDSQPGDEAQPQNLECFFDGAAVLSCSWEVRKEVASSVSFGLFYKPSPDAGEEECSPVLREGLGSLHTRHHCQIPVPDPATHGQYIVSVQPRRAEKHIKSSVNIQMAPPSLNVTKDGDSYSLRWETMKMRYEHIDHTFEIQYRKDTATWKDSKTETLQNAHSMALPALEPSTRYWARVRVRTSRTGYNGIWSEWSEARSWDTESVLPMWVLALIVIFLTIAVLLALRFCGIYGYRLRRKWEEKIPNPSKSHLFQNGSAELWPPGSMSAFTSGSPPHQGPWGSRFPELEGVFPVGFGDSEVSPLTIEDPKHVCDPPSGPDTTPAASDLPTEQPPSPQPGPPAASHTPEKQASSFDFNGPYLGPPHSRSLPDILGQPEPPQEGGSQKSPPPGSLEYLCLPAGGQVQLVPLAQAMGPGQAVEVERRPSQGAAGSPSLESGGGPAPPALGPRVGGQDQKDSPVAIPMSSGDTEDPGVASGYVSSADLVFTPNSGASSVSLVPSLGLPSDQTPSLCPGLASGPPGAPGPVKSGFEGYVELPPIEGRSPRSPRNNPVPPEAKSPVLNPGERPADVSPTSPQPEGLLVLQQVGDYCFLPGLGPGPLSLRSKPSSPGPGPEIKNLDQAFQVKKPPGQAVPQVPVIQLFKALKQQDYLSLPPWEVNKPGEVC
Tyk2/JAK2 (heterodimeric complex), sequence (P29597 whole entry, other chains not shown): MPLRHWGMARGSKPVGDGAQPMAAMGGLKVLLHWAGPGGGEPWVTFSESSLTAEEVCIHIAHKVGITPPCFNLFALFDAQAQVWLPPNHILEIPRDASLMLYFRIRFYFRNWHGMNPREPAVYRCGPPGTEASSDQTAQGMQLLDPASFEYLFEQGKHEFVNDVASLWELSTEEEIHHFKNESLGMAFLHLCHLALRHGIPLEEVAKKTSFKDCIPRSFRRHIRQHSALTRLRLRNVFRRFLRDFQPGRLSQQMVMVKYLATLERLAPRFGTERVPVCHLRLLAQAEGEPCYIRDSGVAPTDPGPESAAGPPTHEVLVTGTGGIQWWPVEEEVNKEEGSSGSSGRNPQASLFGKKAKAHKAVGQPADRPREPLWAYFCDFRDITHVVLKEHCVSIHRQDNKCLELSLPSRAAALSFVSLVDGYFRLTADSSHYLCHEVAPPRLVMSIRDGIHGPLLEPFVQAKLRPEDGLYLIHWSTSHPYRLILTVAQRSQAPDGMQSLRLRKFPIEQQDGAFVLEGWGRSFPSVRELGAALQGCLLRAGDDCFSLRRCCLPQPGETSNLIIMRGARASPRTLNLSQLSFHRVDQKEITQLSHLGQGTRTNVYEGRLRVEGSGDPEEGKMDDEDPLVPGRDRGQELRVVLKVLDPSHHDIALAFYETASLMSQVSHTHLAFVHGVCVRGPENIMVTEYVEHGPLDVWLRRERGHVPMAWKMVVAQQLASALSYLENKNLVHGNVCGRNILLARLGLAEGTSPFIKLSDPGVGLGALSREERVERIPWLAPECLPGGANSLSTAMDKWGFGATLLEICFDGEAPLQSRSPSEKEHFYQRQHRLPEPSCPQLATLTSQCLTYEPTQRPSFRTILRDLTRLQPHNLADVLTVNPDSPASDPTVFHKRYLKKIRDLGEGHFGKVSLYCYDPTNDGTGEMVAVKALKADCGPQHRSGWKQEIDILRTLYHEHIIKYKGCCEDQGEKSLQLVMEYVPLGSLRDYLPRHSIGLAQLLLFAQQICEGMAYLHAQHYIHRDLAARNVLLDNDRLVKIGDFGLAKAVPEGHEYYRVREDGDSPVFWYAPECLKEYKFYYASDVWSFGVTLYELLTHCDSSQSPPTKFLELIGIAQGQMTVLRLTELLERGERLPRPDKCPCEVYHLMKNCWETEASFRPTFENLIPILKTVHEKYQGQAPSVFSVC
human TYK2 (JH2domain-pseudokinase), sequence (P29597 556-888): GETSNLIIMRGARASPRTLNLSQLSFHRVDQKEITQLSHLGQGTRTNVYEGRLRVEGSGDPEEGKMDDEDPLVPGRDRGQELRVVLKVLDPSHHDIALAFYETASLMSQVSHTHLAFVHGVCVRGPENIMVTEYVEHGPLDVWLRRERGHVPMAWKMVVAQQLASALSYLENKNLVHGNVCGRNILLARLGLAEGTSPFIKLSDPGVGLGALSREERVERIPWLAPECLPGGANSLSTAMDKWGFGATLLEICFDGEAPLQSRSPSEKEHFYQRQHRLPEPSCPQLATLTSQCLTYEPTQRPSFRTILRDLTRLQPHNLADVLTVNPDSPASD

Compound `CNc1cc(Nc2cc(Cl)cn(-c3cnn(C)c3)c2=O)nc2c(C(=O)NC3CC3)cnn12` [I-311] gave a Kd in test [1] of less than 0.2 nM. Also, the inhibition at 10 µM on Tyk2 kinase domain (DH1) (compound at 10 μM, ATP 10 μM) was less than 50%; at JAK2 kinase domain (JH1) (compound at 10 μM, ATP 10 μM) it was less than 50%. For the same compound, the results for the IC50 in test [2] and in test [3] were less than 100 nM and more than 12500 nM, respectively.

The compound `CNc1cc(Nc2cc(Cl)cn([C@H]3CCCOC3)c2=O)nc2c(C(=O)N[C@@H]3C[C@@H]3F)cnn12` [I-772] returned a Kd in test [1] of less than 0.2 nM. In addition, the inhibition at 10 µM on Tyk2 kinase domain (DH1) (compound at 10 μM, ATP 10 μM) was less than 50%; at JAK2 kinase domain (JH1) (compound at 10 μM, ATP 10 μM) it was less than 50%. The results for the IC50 in test [2] and in test [3] were less than 100 nM and more than 300 nM, respectively.

`CNc1cc(Nc2cccn(-c3nc(C)co3)c2=O)nc2c(C(=O)N[C@@H]3CC[C@H]3O)cnn12` (stereo in doubt) [I-658, N-((1R,2R)-2-hydroxycyclobutyl)-7-(methylamino)-5-((1-(4-methyloxazol-2-yl)-2-oxo-1,2-dihydropyridin-3-yl)amino)pyrazolo[1,5-a]pyrimidine-3-carboxamide] gave a Kd in test [1] of less than 0.2 nM. The inhibition at 10 µM at Tyk2 kinase domain (DH1) (compound at 10 μM, ATP 10 μM) is less than 50%; on JAK2 kinase domain (JH1) (compound at 10 μM, ATP 10 μM), less than 50%. Moreover, the results for the IC50 in test [2] and in test [3] were less than 100 nM and more than 50000 nM, respectively.

In the case of `[2H]C([2H])([2H])Oc1ncccc1Nc1cc(NC)n2ncc(C(=O)NCC(C)(C)CO)c2n1` [I-347], the Kd in test [1] is less than 0.2 nM. Moreover, the inhibition at 10 µM at Tyk2 kinase domain (DH1) (compound at 10 μM, ATP 10 μM) is less than 50%; at JAK2 kinase domain (JH1) (compound at 10 μM, ATP 10 μM), less than 50%. The IC50 in test [2] is less than 100 nM; in test [3], more than 50000 nM.

As to `CNc1cc(Nc2cccn(CC3CCCCO3)c2=O)nc2c(C(=O)N[C@H]3C[C@H]3F)cnn12` (some centres unmarked) [I-365], the Kd in test [1] is less than 0.2 nM. Moreover, the inhibition at 10 µM at Tyk2 kinase domain (DH1) (compound at 10 μM, ATP 10 μM) was less than 50%; at JAK2 kinase domain (JH1) (compound at 10 μM, ATP 10 μM), less than 50%. For the same compound, the half-inhibitory concentration (IC50) is less than 100 nM in test [2] and more than 50000 nM in test [3].

In turn, `CNc1cc(Nc2cccc(N3CCC34COC4)n2)nc2c(C(=O)N[C@H]3C[C@H]3F)cnn12` [I-709] displayed a Kd in test [1] of less than 0.2 nM. Further, the inhibition at 10 µM at Tyk2 kinase domain (DH1) (compound at 10 μM, ATP 10 μM) was less than 50%; at JAK2 kinase domain (JH1) (compound at 10 μM, ATP 10 μM), less than 50%. For the same compound, the IC50 in test [2] is less than 100 nM; in test [3] it was more than 50000 nM.

Compound `CNc1cc(Nc2cccn(-c3cccc(C(C)(C)O)n3)c2=O)nc2c(C(=O)NC3CCC3)cnn12` [I-156] registered a Kd in test [1] of less than 0.2 nM. The inhibition at 10 µM on Tyk2 kinase domain (DH1) (compound at 10 μM, ATP 10 μM) is less than 50%; at JAK2 kinase domain (JH1) (compound at 10 μM, ATP 10 μM), less than 50%. Moreover, the IC50 was less than 100 nM in test [2] and more than 12500 nM in test [3].

Regarding `CNc1cc(Nc2cc(F)cnc2OC2CC2)nc2c(C(=O)NC3CC3)cnn12` [I-274], in test [1], the Kd was less than 0.2 nM. For the same compound, the inhibition at 10 µM is less than 50% on Tyk2 kinase domain (DH1) (compound at 10 μM, ATP 10 μM) and less than 50% on JAK2 kinase domain (JH1) (compound at 10 μM, ATP 10 μM). Besides, the IC50 in test [2] is less than 100 nM; in test [3], more than 12500 nM.

Take `CNC(=O)c1occc1Nc1cc(NC)n2ncc(C(=O)NC3CC3)c2n1` [I-887]: in test [1], the Kd is less than 0.2 nM. The inhibition at 10 µM at Tyk2 kinase domain (DH1) (10 μM compound, 10 μM ATP) is less than 50%; on JAK2 kinase domain (JH1) (10 μM compound, 10 μM ATP), less than 50%. The IC50 was less than 100 nM in test [2] and more than 50000 nM in test [3].

As to `CNc1cc(Nc2cccn(-c3nc(C)co3)c2=O)nc2c(C(=O)NC3CCC3)cnn12` [I-386], the Kd in test [1] is less than 0.2 nM. Besides, the inhibition at 10 µM at Tyk2 kinase domain (DH1) (compound at 10 μM, ATP 10 μM) is less than 50%; at JAK2 kinase domain (JH1) (compound at 10 μM, ATP 10 μM), less than 50%. For the same compound, the IC50 was less than 100 nM in test [2] and more than 50000 nM in test [3].

In test [1], `CNc1cc(-c2cn(C3CC3)c3ncccc23)nc2c(C(=O)N[C@@H]3C[C@@H]3F)cnn12` [I-961, 5-(1-cyclopropyl-1H-pyrrolo[2,3-b]pyridine-3-yl)-N-((1R,2S)-2-fluorocyclopropyl)-7-(methylamino)pyrazolo[1,5-a]pyrimidine-3-carboxamide] returned a Kd of less than 0.2 nM. The inhibition at 10 µM at Tyk2 kinase domain (DH1) (10 μM compound, 10 μM ATP) is less than 50%; at JAK2 kinase domain (JH1) (10 μM compound, 10 μM ATP) it was less than 50%. Moreover, the IC50 in test [2] is less than 100 nM; in test [3], more than 50000 nM.

The compound `CNc1cc(Nc2cccn(-c3ccc(C(=O)N4CCCC4)cn3)c2=O)nc2c(C(=O)NC3CCC3)cnn12` [I-121] returned a Kd in test [1] of less than 0.2 nM. For the same compound, the inhibition at 10 µM at Tyk2 kinase domain (DH1) (compound at 10 μM, ATP 10 μM) is less than 50%; on JAK2 kinase domain (JH1) (compound at 10 μM, ATP 10 μM), less than 50%. Moreover, the IC50 in test [2] is 100 to 500 nM; in test [3], more than 12500 nM.

Regarding `CNc1cc(Nc2cc(Cl)cn(C3CCN(C)CC3)c2=O)nc2c(C(=O)N[C@@H]3C[C@@H]3F)cnn12` [I-789], in test [1], the Kd is less than 0.2 nM. The inhibition at 10 µM on Tyk2 kinase domain (DH1) (compound at 10 μM, ATP 10 μM) was less than 50%; on JAK2 kinase domain (JH1) (compound at 10 μM, ATP 10 μM), less than 50%. Further, the results for the IC50 in test [2] and in test [3] were less than 100 nM and more than 12500 nM, respectively.
